Values belong to the molecule of their own block, whether it stands above or below them.
Legend:
Beta-secretase 1 = Beta-secretase 1 (Homo sapiens, UniProt P56817); assay: Inhibition of recombinant human BACE-1 expressed in baculovirus using Rh-EVNLDAEFK-Quencher as substrate incubated for 60 mins by FRET assay
[1] = biological target: Amyloid-beta precursor protein (Homo sapiens) (UniProt P05067); assay: Inhibition of amyloid beta (1 to 42) (unknown origin) aggregation at 50 uM incubated for 24 hrs by ThT fluorometric assay
Amyloid-beta precursor protein (Homo sapiens), sequence (P05067 whole entry): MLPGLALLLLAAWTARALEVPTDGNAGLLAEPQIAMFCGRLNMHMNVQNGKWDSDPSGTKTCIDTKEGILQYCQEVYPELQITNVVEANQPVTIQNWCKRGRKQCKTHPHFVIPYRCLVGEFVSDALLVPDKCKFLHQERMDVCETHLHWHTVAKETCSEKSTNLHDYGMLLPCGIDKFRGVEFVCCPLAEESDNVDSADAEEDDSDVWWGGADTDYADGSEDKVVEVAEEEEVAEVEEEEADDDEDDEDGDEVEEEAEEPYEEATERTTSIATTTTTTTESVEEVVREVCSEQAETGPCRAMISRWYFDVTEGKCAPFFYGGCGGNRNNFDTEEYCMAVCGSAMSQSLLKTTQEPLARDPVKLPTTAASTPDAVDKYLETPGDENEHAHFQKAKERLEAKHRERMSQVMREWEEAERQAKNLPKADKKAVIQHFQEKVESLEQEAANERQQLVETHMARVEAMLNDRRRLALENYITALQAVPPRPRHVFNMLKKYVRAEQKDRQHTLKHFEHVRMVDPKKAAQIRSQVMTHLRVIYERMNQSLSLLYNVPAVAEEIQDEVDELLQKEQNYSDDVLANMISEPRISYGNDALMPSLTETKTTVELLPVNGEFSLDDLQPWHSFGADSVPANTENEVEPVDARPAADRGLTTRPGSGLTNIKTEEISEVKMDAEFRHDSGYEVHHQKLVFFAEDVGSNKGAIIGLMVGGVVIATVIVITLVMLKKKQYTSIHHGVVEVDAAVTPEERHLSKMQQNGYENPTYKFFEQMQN

Acetylcholinesterase [2] = biological target: T1, Acetylcholinesterase (Homo sapiens, UniProt P22303); assay: Inhibition of AChE (unknown origin) using acetylthiocholine iodide as substrate preincubated for 20 mins followed by substrate addition by Ellman's method
T1 sequence (P22303 whole entry): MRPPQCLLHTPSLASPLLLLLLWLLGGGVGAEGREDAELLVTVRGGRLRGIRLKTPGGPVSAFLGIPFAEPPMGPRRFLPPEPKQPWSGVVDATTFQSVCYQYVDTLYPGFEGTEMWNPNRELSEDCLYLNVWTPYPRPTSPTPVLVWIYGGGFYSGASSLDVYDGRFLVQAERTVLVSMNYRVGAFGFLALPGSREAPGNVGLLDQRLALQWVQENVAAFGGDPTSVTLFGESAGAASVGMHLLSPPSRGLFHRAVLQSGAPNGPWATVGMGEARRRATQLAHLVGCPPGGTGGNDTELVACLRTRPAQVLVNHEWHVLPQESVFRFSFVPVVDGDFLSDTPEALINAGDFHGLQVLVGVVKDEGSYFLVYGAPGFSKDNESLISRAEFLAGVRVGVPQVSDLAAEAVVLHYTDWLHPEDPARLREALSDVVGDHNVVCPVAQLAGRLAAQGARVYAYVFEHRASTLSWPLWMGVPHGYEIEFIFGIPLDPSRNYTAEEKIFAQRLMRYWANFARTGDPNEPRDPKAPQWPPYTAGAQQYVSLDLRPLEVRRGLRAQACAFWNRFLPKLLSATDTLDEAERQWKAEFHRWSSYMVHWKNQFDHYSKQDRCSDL

Cholinesterase [3] = biological target: T2, Cholinesterase (Homo sapiens, UniProt P06276); assay: Inhibition of BuChE (unknown origin) using butyrylthiocholine iodide as substrate preincubated for 20 mins followed by substrate addition by Ellman's method
T2 sequence (P06276 whole entry): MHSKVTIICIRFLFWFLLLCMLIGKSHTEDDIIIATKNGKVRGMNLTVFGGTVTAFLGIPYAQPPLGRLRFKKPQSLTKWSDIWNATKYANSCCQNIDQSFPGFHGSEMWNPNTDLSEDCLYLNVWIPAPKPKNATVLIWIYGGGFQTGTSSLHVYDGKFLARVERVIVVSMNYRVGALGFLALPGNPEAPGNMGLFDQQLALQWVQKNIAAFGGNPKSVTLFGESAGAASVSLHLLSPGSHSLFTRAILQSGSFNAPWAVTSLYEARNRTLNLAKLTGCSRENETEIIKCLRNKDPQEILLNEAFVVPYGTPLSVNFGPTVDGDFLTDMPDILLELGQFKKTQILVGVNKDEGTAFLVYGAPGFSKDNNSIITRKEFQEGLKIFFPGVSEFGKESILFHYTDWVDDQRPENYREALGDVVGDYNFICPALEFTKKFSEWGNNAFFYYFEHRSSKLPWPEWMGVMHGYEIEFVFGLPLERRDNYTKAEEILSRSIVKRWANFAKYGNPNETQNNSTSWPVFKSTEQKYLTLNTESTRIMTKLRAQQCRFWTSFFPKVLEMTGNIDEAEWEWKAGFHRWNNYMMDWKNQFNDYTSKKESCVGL

Homo sapiens [4] = species: Homo sapiens; assay: Selectivity index, ratio of IC50 for inhibition of MAO-B (unknown origin) to IC50 for inhibition of MAO-A (unknown origin)
[5] = biological target: T3, Amine oxidase [flavin-containing] B (Homo sapiens, UniProt P27338); assay: Inhibition of recombinant human MAO-B using kynuramine as substrate preincubated for 10 mins followed by enzyme addition and measured after 20 mins by fluorescent microplate reader analysis
T3 sequence (P27338 whole entry): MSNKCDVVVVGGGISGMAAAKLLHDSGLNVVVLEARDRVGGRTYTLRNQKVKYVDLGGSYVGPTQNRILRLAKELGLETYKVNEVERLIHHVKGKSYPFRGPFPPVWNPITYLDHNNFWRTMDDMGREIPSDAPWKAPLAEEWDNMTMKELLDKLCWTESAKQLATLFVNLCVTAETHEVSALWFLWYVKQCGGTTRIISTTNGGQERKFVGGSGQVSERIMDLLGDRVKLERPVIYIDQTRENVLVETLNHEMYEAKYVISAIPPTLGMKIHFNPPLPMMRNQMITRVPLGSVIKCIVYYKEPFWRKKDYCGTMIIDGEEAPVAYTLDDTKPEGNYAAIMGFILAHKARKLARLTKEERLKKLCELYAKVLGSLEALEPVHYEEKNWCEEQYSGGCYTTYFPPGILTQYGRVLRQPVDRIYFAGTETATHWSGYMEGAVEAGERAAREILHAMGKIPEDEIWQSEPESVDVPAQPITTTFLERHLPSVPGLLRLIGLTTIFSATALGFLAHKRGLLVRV

Homo sapiens [6] = species: Homo sapiens; assay: Selectivity index, ratio of IC50 for inhibition of recombinant human MAO-B to IC50 for inhibition of recombinant human MAO-A
Homo sapiens [7] = species: Homo sapiens; assay: Selectivity index, ratio of IC50 for inhibition of recombinant human MAO-A to IC50 for inhibition of recombinant human MAO-B
[8] = biological target: T4, Polyunsaturated fatty acid lipoxygenase ALOX15 (Homo sapiens, UniProt P16050); assay: Inhibition of LOX15 (unknown origin)
T4 sequence (P16050 whole entry): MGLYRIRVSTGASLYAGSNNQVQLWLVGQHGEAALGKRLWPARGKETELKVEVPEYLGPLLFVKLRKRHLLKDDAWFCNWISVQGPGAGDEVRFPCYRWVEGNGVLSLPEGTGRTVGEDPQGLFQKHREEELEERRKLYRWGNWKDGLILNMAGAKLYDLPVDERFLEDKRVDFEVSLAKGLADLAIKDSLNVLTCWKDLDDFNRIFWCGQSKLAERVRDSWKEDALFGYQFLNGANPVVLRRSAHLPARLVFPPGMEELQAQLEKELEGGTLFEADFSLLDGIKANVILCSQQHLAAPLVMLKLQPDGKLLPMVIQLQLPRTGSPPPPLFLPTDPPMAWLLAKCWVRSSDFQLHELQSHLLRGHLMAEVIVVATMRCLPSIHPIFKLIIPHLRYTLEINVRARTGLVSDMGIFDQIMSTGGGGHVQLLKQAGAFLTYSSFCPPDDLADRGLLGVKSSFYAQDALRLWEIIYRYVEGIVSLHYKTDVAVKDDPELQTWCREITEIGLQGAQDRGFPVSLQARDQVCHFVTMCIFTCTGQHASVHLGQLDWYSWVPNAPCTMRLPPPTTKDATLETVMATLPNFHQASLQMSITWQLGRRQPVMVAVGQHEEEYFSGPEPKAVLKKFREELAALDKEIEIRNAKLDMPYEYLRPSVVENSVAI

[9] = Antioxidant activity assessed as DPPH radical scavenging activity; type: functional
Acetylcholinesterase [10] = biological target: T1, Acetylcholinesterase; assay: Inhibition of recombinant human AChE using acetylthiocholine as substrate preincubated for 15 mins followed by substrate addition and measured after 5 mins by DTNB reagent based Ellman's method
Cholinesterase [11] = biological target: T2, Cholinesterase; assay: Inhibition of recombinant human BuChE using butyrylthiocholine as substrate preincubated for 15 mins followed by substrate addition and measured after 5 mins by Ellman's method
[12] = biological target: T5, Polyunsaturated fatty acid 5-lipoxygenase (Homo sapiens, UniProt P09917); assay: Inhibition of human LOX5 using arachidonic acid preincubated for 10 mins followed by substrate addition by microplate spectrophotometric analysis
T5 sequence (P09917 whole entry): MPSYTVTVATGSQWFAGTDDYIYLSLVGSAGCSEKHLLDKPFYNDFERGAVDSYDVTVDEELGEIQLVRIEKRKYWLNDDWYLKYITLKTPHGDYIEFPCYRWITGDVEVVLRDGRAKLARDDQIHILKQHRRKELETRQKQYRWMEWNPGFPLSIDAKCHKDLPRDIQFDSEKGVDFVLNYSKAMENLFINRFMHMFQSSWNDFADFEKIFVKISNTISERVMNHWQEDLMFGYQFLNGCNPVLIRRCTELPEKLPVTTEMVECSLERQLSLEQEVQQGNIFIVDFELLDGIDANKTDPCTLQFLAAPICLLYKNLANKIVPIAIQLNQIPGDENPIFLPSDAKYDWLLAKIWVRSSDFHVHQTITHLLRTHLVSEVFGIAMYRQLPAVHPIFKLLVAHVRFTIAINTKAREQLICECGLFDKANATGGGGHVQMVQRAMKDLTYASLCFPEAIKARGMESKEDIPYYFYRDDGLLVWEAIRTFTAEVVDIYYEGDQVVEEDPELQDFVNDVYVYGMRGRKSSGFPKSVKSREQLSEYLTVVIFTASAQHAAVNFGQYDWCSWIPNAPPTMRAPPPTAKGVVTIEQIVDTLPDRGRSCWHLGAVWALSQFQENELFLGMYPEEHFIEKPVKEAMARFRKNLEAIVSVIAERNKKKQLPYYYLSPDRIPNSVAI

[13] = Inhibition of soybean LOX15 using arachidonic acid preincubated for 5 mins followed by substrate addition and measured after 5 mins by microplate spectrophotometric analysis; parameters: species or system Glycine max
[14] = Antioxidant activity assessed as DPPH radical scavenging activity incubated for 45 mins by microplate spectrophotometric anlaysis; type: functional
Cholinesterase [15] = biological target: T2, Cholinesterase; assay: Inhibition of BuChE (unknown origin)
[16] = biological target: Amyloid-beta precursor protein (Homo sapiens) (UniProt P05067); assay: Inhibition of self-induced amyloid beta (1 to 42) (unknown origin) aggregation by ThT fluorometric assay; details: concentration not given here
[17] = biological target: T6, Amine oxidase [flavin-containing] A (Homo sapiens, UniProt P21397); assay: Inhibition of recombinant human MAO-A using kynuramine as substrate preincubated for 10 mins followed by enzyme addition and measured after 20 mins by fluorescent microplate reader analysis
T6 sequence (P21397 whole entry): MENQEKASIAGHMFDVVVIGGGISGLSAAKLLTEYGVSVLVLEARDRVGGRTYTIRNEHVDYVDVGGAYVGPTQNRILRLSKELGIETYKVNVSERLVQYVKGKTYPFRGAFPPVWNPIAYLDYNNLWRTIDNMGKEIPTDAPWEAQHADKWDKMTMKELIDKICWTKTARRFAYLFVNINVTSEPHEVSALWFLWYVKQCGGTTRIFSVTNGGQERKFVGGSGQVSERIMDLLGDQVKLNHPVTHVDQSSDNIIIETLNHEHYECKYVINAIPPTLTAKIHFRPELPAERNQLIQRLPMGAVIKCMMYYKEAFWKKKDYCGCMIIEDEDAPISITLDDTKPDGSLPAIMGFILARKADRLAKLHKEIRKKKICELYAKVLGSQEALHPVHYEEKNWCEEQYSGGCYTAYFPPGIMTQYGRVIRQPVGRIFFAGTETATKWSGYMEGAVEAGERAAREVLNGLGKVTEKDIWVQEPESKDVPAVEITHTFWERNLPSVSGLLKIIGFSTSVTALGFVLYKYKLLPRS

Beta-secretase 1, sequence (P56817 whole entry): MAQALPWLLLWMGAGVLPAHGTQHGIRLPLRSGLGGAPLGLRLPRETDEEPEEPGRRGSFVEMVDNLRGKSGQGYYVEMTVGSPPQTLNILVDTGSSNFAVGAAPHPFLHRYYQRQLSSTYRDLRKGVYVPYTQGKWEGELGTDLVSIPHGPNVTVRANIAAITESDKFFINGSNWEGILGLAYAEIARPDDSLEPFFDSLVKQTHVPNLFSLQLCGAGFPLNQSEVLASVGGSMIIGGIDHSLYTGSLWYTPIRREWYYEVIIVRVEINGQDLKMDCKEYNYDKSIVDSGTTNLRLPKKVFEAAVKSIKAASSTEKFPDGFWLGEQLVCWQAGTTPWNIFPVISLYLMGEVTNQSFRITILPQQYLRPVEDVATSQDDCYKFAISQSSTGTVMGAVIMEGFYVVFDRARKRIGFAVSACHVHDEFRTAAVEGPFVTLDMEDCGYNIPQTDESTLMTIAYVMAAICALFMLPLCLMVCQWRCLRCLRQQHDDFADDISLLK

- IC50 (Beta-secretase 1): 16 µM
Structure (SMILES): COc1ccc(-c2oc3cc(Br)c(I)cc3c(=O)c2O)cc1

- inhibition [1]: 74%
Structure (SMILES): COc1cccc2oc3c(c(=O)c12)[C@H](O)CC3

Structure (SMILES): O=c1c(O)c(-c2ccccc2)oc2cc(Br)c(I)cc12
- IC50 (Acetylcholinesterase [2]): 10 µM
- IC50 (Cholinesterase [3]): 6 µM

- Ratio IC50 (Homo sapiens [4]): > 14
Structure (SMILES): O=c1cc(-c2ccc(Cl)cc2)oc2ccc(Cn3cc(Oc4cccc(O)c4)nn3)cc12

- IC50 [5]: 0.15 µM
- Ratio IC50 (Homo sapiens [6]): > 670
Structure (SMILES): COc1ccc2ccn(-c3cc(=O)c4ccccc4o3)c2c1

- IC50 [5]: 0.15 µM
- Ratio IC50 (Homo sapiens [6]): > 670
Structure (SMILES): COc1ccc2c(=O)cc(-n3ccc4ccccc43)oc2c1

- Ratio IC50 (Homo sapiens [7]): 1500
Structure (SMILES): COc1ccc2oc(/C=C/c3ccc(Cl)cc3)cc(=O)c2c1

Structure (SMILES): COc1ccc(-c2cc3cc4c(=O)c(C=O)coc4cc3o2)cc1
- IC50 [8]: 9.6 µM
- IC50 [9]: 18.1 µM
- IC50 (Acetylcholinesterase [10]): 10 µM
- IC50 (Cholinesterase [11]): 5 µM
- IC50 [12]: 15 µM
- IC50 [13]: 10 µM
- IC50 [14]: 18 µM

Structure (SMILES): O=C(CCCCC1CCSS1)NCc1cn(CCCCOc2ccc3c(=O)ccoc3c2)nn1 (stereo unspecified)
- IC50 (Cholinesterase [15]): 8 µM
- inhibition [16]: 13%

- IC50 [17]: 0.32 µM
- IC50 [5]: 0.63 µM
Structure (SMILES): COc1ccc2oc(-n3ccc4ccccc43)cc(=O)c2c1
